Data: ChEMBL document CHEMBL1128908, “Synthesis and biological evaluation of 2,3-diarylthiophenes as selective cox-2 inhibitors. part II: Replacing the heterocycle” (Bioorg Med Chem Lett, 1996)

How the values were obtained:
[1] = target: Prostaglandin G/H synthase 1 (Homo sapiens, UniProt P23219); assay: biochemical; format: cell-based, Sf9, Microsomes
Description: Inhibitory activity against human recombinant Prostaglandin G/H synthase 1 expressed in microsomes taken from baculovirus infected Sf9 cells

[2] = target: T1, Prostaglandin G/H synthase 2 (Homo sapiens, UniProt P35354); assay: biochemical; format: cell-based, Sf9, Microsomes
T1 sequence (P35354 whole entry): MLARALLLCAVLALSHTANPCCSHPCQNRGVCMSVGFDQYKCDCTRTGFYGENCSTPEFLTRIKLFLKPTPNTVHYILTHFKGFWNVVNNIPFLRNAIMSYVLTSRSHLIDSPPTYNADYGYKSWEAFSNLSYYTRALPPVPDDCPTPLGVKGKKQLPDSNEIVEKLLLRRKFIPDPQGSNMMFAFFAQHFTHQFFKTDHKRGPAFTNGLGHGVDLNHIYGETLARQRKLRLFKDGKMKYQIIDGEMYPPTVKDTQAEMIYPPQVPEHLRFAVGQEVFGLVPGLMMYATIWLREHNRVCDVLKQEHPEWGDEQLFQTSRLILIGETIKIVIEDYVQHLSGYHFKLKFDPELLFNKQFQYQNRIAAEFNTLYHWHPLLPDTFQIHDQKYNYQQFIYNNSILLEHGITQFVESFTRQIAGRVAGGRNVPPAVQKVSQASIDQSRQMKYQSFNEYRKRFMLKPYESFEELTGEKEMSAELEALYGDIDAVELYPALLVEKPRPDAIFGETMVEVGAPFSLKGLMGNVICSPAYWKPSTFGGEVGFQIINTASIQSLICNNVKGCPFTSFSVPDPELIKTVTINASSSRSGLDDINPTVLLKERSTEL
Description: Inhibitory activity against human recombinant Prostaglandin G/H synthase 2 expressed in microsomes taken from baculovirus infected Sf9 cells

[3] = tested on: Rattus norvegicus; assay: Compound was evaluated in vivo for potency against rat paw edema model; format: functional
[4] = tested on: Rattus norvegicus; assay: Compound was evaluated in vivo for effect on gastrointestinal integrity (GI) in rats using [51Cr]- assay: causes lesions; format: functional, organism-based
[5] = Plasma concentration at 2 hr in rats was evaluated.; format: ADME, organism-based; settings: rat
[6] = tested on: Rattus norvegicus; assay: Compound was evaluated in vivo for effect on gastrointestinal integrity(GI) in rats using [51Cr]- assay: no lesions observed; format: functional, organism-based
[7] = tested on: Rattus norvegicus; assay: Compound was evaluated in vivo for effect on gastrointestinal integrity(GI) in rats using [51Cr]- assay: causes lesions; format: functional, organism-based

Sequence of Prostaglandin G/H synthase 1 (P23219 whole entry): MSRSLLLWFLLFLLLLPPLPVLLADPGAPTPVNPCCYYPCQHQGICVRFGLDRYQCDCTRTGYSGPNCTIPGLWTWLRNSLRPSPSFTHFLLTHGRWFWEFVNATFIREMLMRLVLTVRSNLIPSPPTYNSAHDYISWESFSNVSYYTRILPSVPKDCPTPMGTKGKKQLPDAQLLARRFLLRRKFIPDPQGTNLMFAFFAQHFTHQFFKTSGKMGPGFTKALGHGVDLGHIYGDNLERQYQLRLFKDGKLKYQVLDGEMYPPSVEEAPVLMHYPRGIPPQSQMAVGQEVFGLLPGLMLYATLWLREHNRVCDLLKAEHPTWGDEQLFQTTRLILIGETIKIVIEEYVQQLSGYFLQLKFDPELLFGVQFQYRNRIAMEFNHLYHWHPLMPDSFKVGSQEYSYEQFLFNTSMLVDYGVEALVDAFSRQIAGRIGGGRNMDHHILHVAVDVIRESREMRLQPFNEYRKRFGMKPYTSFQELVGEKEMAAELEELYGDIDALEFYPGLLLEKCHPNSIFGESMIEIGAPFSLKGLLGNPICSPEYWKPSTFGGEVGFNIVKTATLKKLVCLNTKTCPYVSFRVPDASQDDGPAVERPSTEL

Row | Compound | IC50 [1] | IC50 [2] | other results
1 | CS(=O)(=O)c1ccc(-c2[nH]nnc2-c2ccccc2)cc1 | > 50 µM | > 30 µM | 
2 | CS(=O)(=O)c1ccc(-c2csc(Br)c2-c2ccc(F)cc2)cc1 | 1.2 µM |  | 
3 | CS(=O)(=O)c1ccc(-n2nnnc2-c2ccc(F)c(F)c2)cc1 | > 100 µM | > 30 µM | 
4 | CS(=O)(=O)c1ccc(-c2cc(Br)sc2-c2ccc(F)cc2)cc1 [DUP-697] |  |  | ED50 [3]: 1.3 mg/kg; growth inhibition (GI) [4]: causes lesions; concentration at 2 h [5]: 700 ng/mL
5 | Cc1nc(-c2ccc(F)cc2)c(-c2ccc(S(C)(=O)=O)cc2)s1 | > 100 µM | 0.31 µM | 
6 | CS(=O)(=O)c1ccc(-c2snnc2-c2ccc(F)cc2)cc1 | > 100 µM | 6.5 µM | growth inhibition (GI) [6]: no lesions observed; ED50 [3]: 0.7 mg/kg; concentration at 2 h [5]: 12800 ng/mL
7 | CS(=O)(=O)c1ccc(-c2ncoc2-c2ccc(F)cc2)cc1 | > 100 µM | > 30 µM | 
8 | COc1ccc2c(c1)c(CC(=O)O)c(C)n2C(=O)c1ccc(Cl)cc1 [INDOMETHACIN] |  |  | ED50 [3]: 2 mg/kg; growth inhibition (GI) [7]: Causes lesions
9 | CS(=O)(=O)c1ccc(-c2nnnn2-c2ccc(F)c(F)c2)cc1 | > 50 µM | > 30 µM | 
10 | CS(=O)(=O)c1ccc(-c2csc(CC(=O)O)c2-c2ccc(F)cc2)cc1 | > 50 µM | > 10 µM | 
11 | CS(=O)(=O)c1ccc(-c2c(-c3ccc(F)cc3)csc2Br)cc1 | > 50 µM | > 30 µM | 
12 | CS(=O)(=O)c1ccc(C2=C(c3ccc(F)cc3)C3CCC2C3)cc1 (stereo unspecified) | > 50 µM | 30 µM | 

The next lines start with results.

Row | IC50 [1] | IC50 [2] | Compound | other results
13 | > 50 µM | > 10 µM | CS(=O)(=O)c1ccc(-c2c(-c3ccc(F)cc3)csc2CC(=O)O)cc1 | 
14 | > 100 µM | 0.31 µM | Cc1nc(-c2ccc(S(C)(=O)=O)cc2)c(-c2ccc(F)cc2)s1 | 
15 | > 100 µM | 0.47 µM | CS(=O)(=O)c1ccc(-c2cscc2-c2ccc(F)cc2)cc1 | 
16 | > 100 µM | > 30 µM | CS(=O)(=O)c1ccc(-c2[nH]cnc2-c2ccc(F)cc2)cc1 | 
17 | > 100 µM | 5.1 µM | CS(=O)(=O)c1ccc(-c2sncc2-c2ccc(F)cc2)cc1 | 
18 | > 50 µM | > 30 µM | CC(C)(O)c1scc(-c2ccc(F)cc2)c1-c1ccc(S(C)(=O)=O)cc1 | 
19 | > 1.1 µM | 1.2 µM | CS(=O)(=O)c1ccc(-c2cc(C(F)(F)F)nn2-c2ccc(F)cc2)cc1 | 
20 | > 50 µM | > 30 µM | CS(=O)(=O)c1ccc(-c2oc(=O)oc2-c2ccccc2)cc1 | 
21 | > 50 µM | 5.9 µM | CC(C)(O)c1scc(-c2ccc(S(C)(=O)=O)cc2)c1-c1ccc(F)cc1 | 
22 | > 100 µM | > 30 µM | CS(=O)(=O)c1ccc(-c2ocnc2-c2ccc(F)cc2)cc1 | 
23 | > 100 µM | 2.1 µM | CS(=O)(=O)c1ccc(-c2cnsc2-c2ccc(F)cc2)cc1 | ED50 [3]: 10 mg/kg; concentration at 2 h [5]: 2200 ng/mL
